Results from patent US20240409585A1, “MACROCYCLIC IMMUNOMODULATORS” (priority 2021, published 2024).
Bridge positions count the residues as written; N and C are the ends. Square brackets hold non-standard residues; d marks the D form. Peptide text beside a SMILES is read from it. * marks the point of attachment. ξ: configuration not given here. Phe(3-OCH2COOH) = N[C@@H](Cc1cccc(OCC(=O)O)c1)C(=O)O; Phe(4-CONH2) = NC(=O)c1ccc(C[C@H](N)C(=O)O)cc1; Phe(4-COOH) = N[C@@H](Cc1ccc(C(=O)O)cc1)C(=O)O; Bip = N[C@@H](Cc1ccc(-c2ccccc2)cc1)C(=O)O; Phe(3-OMe) = COc1cccc(C[C@H](N)C(=O)O)c1; Phe(3-Me) = Cc1cccc(C[C@H](N)C(=O)O)c1; Val(3-OH) = CC(C)(O)[C@H](N)C(=O)O; 4Pal = N[C@@H](Cc1ccncc1)C(=O)O; 2Thi = N[C@@H](Cc1cccs1)C(=O)O; Cha = N[C@@H](CC1CCCCC1)C(=O)O; Cit = NC(=O)NCCC[C@H](N)C(=O)O; Thr(3ξ) = CC(O)[C@H](N)C(=O)O; dOrn = NCCC[C@@H](N)C(=O)O; Carboxymethyl = O=C(O)C*; NMeA = CN[C@@H](C)C(=O)O; Nle = CCCC[C@H](N)C(=O)O; Orn = NCCC[C@H](N)C(=O)O; Dab = NCC[C@H](N)C(=O)O; Dap = NC[C@H](N)C(=O)O; Piv = CC(C)(C)C(=O)*

The compounds below were run against T1, PE-labeled human PD-L1-Ig binding to Jurkat cell line over-expressing human PD-1 (Jurkat-PD-1) (Homo sapiens, UniProt Q15116) (assay: Jurkat-PD-1 Cell Binding High-Content Screening Assay (CBA): Method 1). Settings: Jurkat-hPD-1 cells, PE-labeled PD-L1-Ig 20 nM final; read-out: Jurkat HPDL1 PD1 IC50 (uM) (Method 1).
T1 construct: expressed in transfected cells; host or cells: Jurkat
T1 sequence (Q15116 25-288): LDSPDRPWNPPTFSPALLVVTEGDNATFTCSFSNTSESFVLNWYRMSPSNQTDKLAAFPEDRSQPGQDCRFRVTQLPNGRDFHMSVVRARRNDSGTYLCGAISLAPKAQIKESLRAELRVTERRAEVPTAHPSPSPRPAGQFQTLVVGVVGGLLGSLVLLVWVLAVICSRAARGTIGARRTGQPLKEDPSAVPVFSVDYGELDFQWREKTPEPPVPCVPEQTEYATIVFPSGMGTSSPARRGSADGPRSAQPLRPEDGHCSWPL
Work on `Cc1cccc(C[C@@H]2NC(=O)[C@H](CC(=O)O)NC(=O)[C@H](Cc3ccc(OCC(=O)O)cc3)NC(=O)[C@H](CCCNC(=N)N)NC(=O)CSC[C@@H](C(N)=O)NC(=O)[C@H]([C@@H](C)O)NC(=O)[C@H](C(C)C)NC(=O)[C@H](CC3CCCCC3)NC(=O)[C@H](CCN)NC(=O)[C@@H](CC(C)C)NC(=O)[C@H](C)N(C)C(=O)[C@H](CCCN)NC(=O)[C@H](Cc3ccc(-c4ccccc4)cc3)NC(=O)[C@H](Cc3ccc(O)cc3)NC2=O)c1` [Compound 1868] ({CH2CO}-RY(Carboxymethyl)D[Phe(3-Me)]Y[Bip][Orn][NMeA][dL][Dab][Cha]VTC-NH2; thioether N-14) yielded an IC50 of 0.17 µM. Work on `Cc1cccc(C[C@@H]2NC(=O)[C@H](CC(=O)O)NC(=O)[C@H](Cc3ccncc3)NC(=O)[C@H](CN)NC(=O)CSC[C@@H](C(=O)N[C@@H](C)C(N)=O)NC(=O)[C@H]([C@@H](C)O)NC(=O)[C@H](C(C)C)NC(=O)[C@H](CC(C)C)NC(=O)[C@H](CCN)NC(=O)[C@@H](CC(C)C)NC(=O)[C@H](C)N(C)C(=O)[C@H](CCCNC(N)=O)NC(=O)[C@H](Cc3ccc(-c4ccccc4)cc3)NC(=O)[C@H](C(C)C)NC2=O)c1` [Compound 1546] ({CH2CO}-[Dap][4Pal]D[Phe(3-Me)]V[Bip][Cit][NMeA][dL][Dab]LVTCA-NH2; thioether N-14) yielded an IC50 of 0.02 µM. `CC[C@H](C)[C@@H]1NC(=O)[C@H](Cc2ccc(-c3ccccc3)cc2)NC(=O)[C@H](C(C)C)NC(=O)[C@H](Cc2c[nH]c3ccccc23)NC(=O)[C@H](CC(=O)O)NC(=O)[C@H](Cc2ccc(O)cc2)NC(=O)[C@H](CC(N)=O)NC(=O)CSC[C@@H](C(=O)N[C@@H](C)C(N)=O)NC(=O)[C@H](CO)NC(=O)[C@H](C(C)C)NC(=O)[C@H](CC(C)C)NC(=O)[C@H](CCCCN)NC(=O)[C@@H](CC(C)C)NC(=O)[C@H](C)N(C)C1=O` [Compound 1480] ({CH2CO}-NYDWV[Bip]I[NMeA][dL]KLVSCA-NH2; thioether N-14) gave an IC50 of 0.04 µM. In the case of `CC(C)C[C@@H]1NC(=O)[C@H](CCCNC(=N)N)NC(=O)[C@@H](Cc2ccccc2)NC(=O)[C@H](C)N(C)C(=O)[C@H](CCCNC(=N)N)NC(=O)[C@H](Cc2ccc(-c3ccccc3)cc2)NC(=O)[C@H](C(C)C)NC(=O)[C@H](Cc2c[nH]c3ccccc23)NC(=O)[C@H](CC(=O)O)NC(=O)[C@H](Cc2ccc(O)cc2)NC(=O)[C@H](CCC(N)=O)NC(=O)CSC[C@@H](C(=O)N[C@@H](C)C(N)=O)NC(=O)[C@H](CO)NC(=O)[C@H](C(C)C)NC1=O` [Compound 1043] ({CH2CO}-QYDWV[Bip]R[NMeA][dF]RLVSCA-NH2; thioether N-14), the IC50 is reported as 0.17 µM. `CC(C)C[C@@H]1NC(=O)[C@H](CCCNC(=N)N)NC(=O)[C@@H](CC(C)C)NC(=O)[C@H](C)N(C)C(=O)[C@H](CCCNC(=N)N)NC(=O)[C@H](Cc2ccc(-c3ccccc3)cc2)NC(=O)[C@H](C(C)C)NC(=O)[C@H](Cc2c[nH]c3ccccc23)NC(=O)[C@H](CC(=O)O)NC(=O)[C@H](Cc2ccc(C(N)=O)cc2)NC(=O)[C@H](Cc2ccccc2)NC(=O)CSC[C@@H](C(=O)N[C@@H](C)C(N)=O)NC(=O)[C@H]([C@@H](C)O)NC(=O)[C@H](C(C)C)NC1=O` [Compound 1099] ({CH2CO}-F[Phe(4-CONH2)]DWV[Bip]R[NMeA][dL]RLVTCA-NH2; thioether N-14) gave an IC50 of 0.03 µM. Work on `CC(C)C[C@@H]1NC(=O)[C@H](Cc2c[nH]c3ccccc23)NC(=O)[C@H](CC(=O)O)NC(=O)[C@H](Cc2ccc(C(=O)O)cc2)NC(=O)[C@H](Cc2ccccc2)NC(=O)CSC[C@@H](C(=O)NCC(N)=O)NC(=O)[C@H](CO)NC(=O)[C@H](C(C)C)NC(=O)[C@H](CC(C)C)NC(=O)[C@H](CC(N)=O)NC(=O)[C@@H](CC(C)C)NC(=O)[C@H](C)N(C)C(=O)[C@H](C(C)C)NC(=O)[C@H](Cc2ccc(-c3ccccc3)cc2)NC1=O` [Compound 1528] ({CH2CO}-F[Phe(4-COOH)]DWL[Bip]V[NMeA][dL]NLVSCG-NH2; thioether N-14) yielded an IC50 of 0.01 µM. Compound `Cc1cccc(C[C@@H]2NC(=O)[C@H](CC(=O)O)NC(=O)[C@H](Cc3ccc(OCC(=O)O)cc3)NC(=O)[C@H](Cc3cccs3)NC(=O)CSC[C@@H](C(=O)N[C@@H](CCNC(=O)C(C)(C)C)C(N)=O)NC(=O)[C@H](Cc3cnc[nH]3)NC(=O)[C@H](C(C)(C)O)NC(=O)[C@H](CC3CCCCC3)NC(=O)[C@H](CCN)NC(=O)[C@@H](CC(C)C)NC(=O)[C@H](C)N(C)C(=O)[C@H](Cc3ccc(OCC(=O)O)cc3)NC(=O)[C@H](Cc3ccc(-c4ccccc4)cc3)NC(=O)[C@H](Cc3ccc(C(=O)O)cc3)NC2=O)c1` [Compound 2166] ({CH2CO}-[2Thi]Y(Carboxymethyl)D[Phe(3-Me)][Phe(4-COOH)][Bip]Y(Carboxymethyl)[NMeA][dL][Dab][Cha][Val(3-OH)]HC[Dab](Piv)-NH2; thioether N-14) has an IC50 of 0.02 µM. Work on `CC(C)C[C@@H]1NC(=O)[C@H](CCN)NC(=O)[C@@H](CC(C)C)NC(=O)[C@H](C)N(C)C(=O)[C@H](CCCNC(=N)N)NC(=O)[C@H](Cc2ccc(-c3ccccc3)cc2)NC(=O)[C@H](C(C)C)NC(=O)[C@H](Cc2c[nH]c3ccccc23)NC(=O)[C@H](CC(=O)O)NC(=O)[C@H](Cc2cccc(OCC(=O)O)c2)NC(=O)[C@H](CC(N)=O)NC(=O)CSC[C@@H](C(=O)N[C@@H](C)C(N)=O)NC(=O)[C@H]([C@@H](C)O)NC(=O)[C@H](C(C)C)NC1=O` [Compound 1372] ({CH2CO}-N[Phe(3-OCH2COOH)]DWV[Bip]R[NMeA][dL][Dab]LVTCA-NH2; thioether N-14) yielded an IC50 of 0.14 µM. Compound `CC[C@H](C)[C@@H]1NC(=O)[C@H](Cc2ccc(-c3ccccc3)cc2)NC(=O)[C@H](C(C)C)NC(=O)[C@H](Cc2c[nH]c3ccccc23)NC(=O)[C@H](CC(=O)O)NC(=O)[C@H](Cc2ccc(O)cc2)NC(=O)[C@H](Cc2ccccc2)NC(=O)CSC[C@@H](C(=O)N[C@@H](C)C(N)=O)NC(=O)[C@H]([C@@H](C)O)NC(=O)[C@H](C(C)C)NC(=O)[C@H](CC2CCCCC2)NC(=O)[C@H](CCCNC(=N)N)NC(=O)[C@@H](CC(C)C)NC(=O)[C@H](C)N(C)C1=O` [Compound 1494] ({CH2CO}-FYDWV[Bip]I[NMeA][dL]R[Cha]VTCA-NH2; thioether N-14) has an IC50 of 0.05 µM. In the case of `CCCC[C@@H]1NC(=O)[C@H](CC(N)=O)NC(=O)[C@@H](C)NC(=O)[C@H](C)N(C)C(=O)[C@H](C(C)C)NC(=O)[C@H](Cc2ccc(-c3ccccc3)cc2)NC(=O)[C@H](CC(C)C)NC(=O)[C@H](Cc2c[nH]c3ccccc23)NC(=O)[C@H](CC(=O)O)NC(=O)[C@H](Cc2ccc(O)cc2)NC(=O)[C@H](Cc2ccccc2)NC(=O)CSC[C@@H](C(=O)N[C@@H](C)C(N)=O)NC(=O)[C@H]([C@@H](C)O)NC(=O)[C@H](C(C)C)NC1=O` [Compound 1778] ({CH2CO}-FYDWL[Bip]V[NMeA][dA]N[Nle]VTCA-NH2; thioether N-14), the IC50 is reported as 0.07 µM. For `COc1cccc(C[C@@H]2NC(=O)[C@H](CC(N)=O)NC(=O)CSC[C@@H](C(=O)N[C@@H](C)C(N)=O)NC(=O)[C@H]([C@@H](C)O)NC(=O)[C@H](C(C)C)NC(=O)[C@H](CC(C)C)NC(=O)[C@H](CCN)NC(=O)[C@@H](CC(C)C)NC(=O)[C@H](C)N(C)C(=O)[C@H](CCCNC(=N)N)NC(=O)[C@H](Cc3ccc(-c4ccccc4)cc3)NC(=O)[C@H](C(C)C)NC(=O)[C@H](Cc3c[nH]c4ccccc34)NC(=O)[C@H](CC(=O)O)NC2=O)c1` [Compound 1307] ({CH2CO}-N[Phe(3-OMe)]DWV[Bip]R[NMeA][dL][Dab]LVTCA-NH2; thioether N-14), the IC50 was 0.1 µM. `CC(C)C[C@@H]1NC(=O)[C@H](Cc2c[nH]c3ccccc23)NC(=O)[C@H](CC(=O)O)NC(=O)[C@H](Cc2ccc(OCC(=O)O)cc2)NC(=O)[C@H](Cc2ccccc2)NC(=O)CSC[C@@H](C(=O)N[C@@H](CC(N)=O)C(N)=O)NC(=O)[C@H](Cc2cnc[nH]2)NC(=O)[C@H](C(C)C)NC(=O)[C@H](CC(C)C)NC(=O)[C@H](CCN)NC(=O)[C@@H](CC(C)C)NC(=O)[C@H](C)N(C)C(=O)[C@H](C(C)C)NC(=O)[C@H](Cc2ccc(-c3ccccc3)cc2)NC1=O` [Compound 2098] ({CH2CO}-FY(Carboxymethyl)DWL[Bip]V[NMeA][dL][Dab]LVHCN-NH2; thioether N-14) gave an IC50 of 0.01 µM. Work on `CC(C)C[C@@H]1NC(=O)[C@H](CCN)NC(=O)[C@@H](CC(C)C)NC(=O)[C@H](C)N(C)C(=O)[C@H](CCC(=O)O)NC(=O)[C@H](Cc2ccc(-c3ccccc3)cc2)NC(=O)[C@H](C(C)C)NC(=O)[C@H](Cc2c[nH]c3ccccc23)NC(=O)[C@H](CC(=O)O)NC(=O)[C@H](Cc2ccc(OCC(=O)O)cc2)NC(=O)[C@H](CC(N)=O)NC(=O)CSC[C@@H](C(=O)NCC(N)=O)NC(=O)[C@H](C(C)O)NC(=O)[C@H](C(C)C)NC1=O` (stereo partly drawn) [Compound 2086] ({CH2CO}-NY(Carboxymethyl)DWV[Bip]E[NMeA][dL][Dab]LV[Thr(3ξ)]CG-NH2; thioether N-14) yielded an IC50 of 0.2 µM. With `Cc1cccc(C[C@@H]2NC(=O)[C@H](CC(=O)O)NC(=O)[C@H](Cc3ccc(OCC(=O)O)cc3)NC(=O)[C@H](Cc3ccncc3)NC(=O)CSC[C@@H](C(=O)N[C@@H](CCNC(=O)C(C)(C)C)C(N)=O)NC(=O)[C@H](Cc3cnc[nH]3)NC(=O)[C@H](C(C)(C)O)NC(=O)[C@H](CC3CCCCC3)NC(=O)[C@H](CCN)NC(=O)[C@@H](CC(C)C)NC(=O)[C@H](C)N(C)C(=O)[C@H](Cc3ccc(OCC(=O)O)cc3)NC(=O)[C@H](Cc3ccc(-c4ccccc4)cc3)NC(=O)[C@H](Cc3ccc(C(=O)O)cc3)NC2=O)c1` [Compound 2165] ({CH2CO}-[4Pal]Y(Carboxymethyl)D[Phe(3-Me)][Phe(4-COOH)][Bip]Y(Carboxymethyl)[NMeA][dL][Dab][Cha][Val(3-OH)]HC[Dab](Piv)-NH2; thioether N-14) the IC50 was 0.04 µM. In the case of `CC(=O)NCCCC[C@@H]1NC(=O)[C@H](C(C)C)NC(=O)[C@H](CC2CCCCC2)NC(=O)[C@H](CCN)NC(=O)[C@@H](CC(C)C)NC(=O)[C@H](C)N(C)C(=O)[C@H](CCC(N)=O)NC(=O)[C@H](Cc2ccc(-c3ccccc3)cc2)NC(=O)[C@H](C(C)C)NC(=O)[C@H](Cc2cccc(C)c2)NC(=O)[C@H](CC(=O)O)NC(=O)[C@H](Cc2ccc(OCC(=O)O)cc2)NC(=O)[C@H](Cc2ccc(OCC(=O)O)cc2)NC(=O)CSC[C@@H](C(=O)N[C@H](CCCN)C(N)=O)NC1=O` [Compound 2155] ({CH2CO}-Y(Carboxymethyl)Y(Carboxymethyl)D[Phe(3-Me)]V[Bip]Q[NMeA][dL][Dab][Cha]VK(Ac)C[dOrn]-NH2; thioether N-14), the IC50 is reported as 0.01 µM.
